Data taken from patent US20120029187A1, “HALOALKYLSULFONANILIDE DERIVATIVE” (Nissan Chemical Industries, Ltd., priority 2009, published 2012).

Key:
Assay type in all cases: in vivo
[1] = tested on: barnyardgrass; experiment: Test Example 2: herbicidal effects during the vegetation period under submerged conditions; conditions: treatment during the vegetation period under submerged conditions; dose 2.52 g/a
In short: (§1)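 Barnyardgrass, bulrush and ducksalad were co-sown in alluvial soil flooded to 4 cm and grown in a greenhouse at 25 to 30° C. At the 1- or 2-leaf stage, water-diluted emulsifiable concentrates went onto the water surface at set doses (g/a). Herbicidal effect was scored three weeks later on a graded scale.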

[2] = tested on: ducksalad; experiment: as above; conditions: treatment during the vegetation period under submerged conditions; dose 2.52 g/a
In short: as §1

[3] = tested on: bulrush; experiment: as above; conditions: treatment during the vegetation period under submerged conditions; dose 2.52 g/a
In short: as §1

[4] = tested on: barnyardgrass; experiment: Test Example 1: herbicidal effects in preemergence treatment under submerged conditions; conditions: dose 2.52 g/a
In short: (§2)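 Alluvial soil flooded to 4 cm depth; barnyardgrass, bulrush and ducksalad sown and 2.5-leaf rice seedlings transplanted. Same day, water-diluted emulsifiable concentrates applied to the water surface at set doses (g/a). Kept at 25–30 °C in greenhouse; effects scored 0–5 by mortality after three weeks.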

[5] = tested on: ducksalad; experiment: as above; conditions: dose 2.52 g/a
In short: as §2

[6] = tested on: bulrush; experiment: as above; conditions: dose 2.52 g/a
In short: as §2

[7] = tested on: transplanted rice; experiment: Test Example 1: preemergence treatment under submerged conditions, effect on crop; conditions: dose 2.52 g/a
In short: as §2

[8] = tested on: water foxtail; experiment: Test Example 4: herbicidal effect in foliage treatment; conditions: dose 3.2 g/a, three weeks after application
In short: (§3)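 Visual herbicidal scores on a graded scale were recorded three weeks after foliar application. Compounds went on as diluted emulsifiable concentrates at predetermined g/a to plants grown 14 days in a 25 to 30° C greenhouse.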

[9] = tested on: common lambsquater; experiment: as above; conditions: dose 3.2 g/a, three weeks after application
In short: as §3

[10] = tested on: barnyardgrass; experiment: as above; conditions: dose 3.2 g/a, three weeks after application
In short: as §3

[11] = tested on: redroot pigweed; experiment: as above; conditions: dose 3.2 g/a, three weeks after application
In short: as §3

[12] = tested on: large crabgrass; experiment: as above; conditions: dose 3.2 g/a, three weeks after application
In short: as §3

[13] = tested on: common chickweed; experiment: as above; conditions: dose 3.2 g/a, three weeks after application
In short: as §3

[14] = tested on: giant foxtail; experiment: as above; conditions: dose 3.2 g/a, three weeks after application
In short: as §3

[15] = tested on: beadstraw; experiment: as above; conditions: dose 3.2 g/a, three weeks after application
In short: as §3

[16] = tested on: Italian ryegrass; experiment: as above; conditions: dose 3.2 g/a, three weeks after application
In short: as §3

[17] = tested on: wild oat; experiment: as above; conditions: dose 3.2 g/a, three weeks after application
In short: as §3

[18] = tested on: velvetleaf; experiment: as above; conditions: dose 3.2 g/a, three weeks after application
In short: as §3

[19] = tested on: common ragweed; experiment: as above; conditions: dose 3.2 g/a, three weeks after application
In short: as §3

[20] = tested on: posumbu knotweed; experiment: as above; conditions: dose 3.2 g/a, three weeks after application
In short: as §3

[21] = tested on: water foxtail; experiment: Test Example 3: herbicidal effects in soil treatment; conditions: dose 3.2 g/a
In short: (§4)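 Seeds were sown in sterilized diluvial soil and covered with about 1.5 cm of soil. Compounds, formulated as emulsifiable concentrates and diluted with water, were sprayed evenly over the soil surface at set doses in g/a. Herbicidal effect was scored on a rating scale three weeks later.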

[22] = tested on: common lambsquater; experiment: as above; conditions: dose 3.2 g/a
In short: as §4

[23] = tested on: barnyardgrass; experiment: as above; conditions: dose 3.2 g/a
In short: as §4

[24] = tested on: redroot pigweed; experiment: as above; conditions: dose 3.2 g/a
In short: as §4

[25] = tested on: large crabgrass; experiment: as above; conditions: dose 3.2 g/a
In short: as §4

[26] = tested on: common chickweed; experiment: as above; conditions: dose 3.2 g/a
In short: as §4

[27] = tested on: giant foxtail; experiment: as above; conditions: dose 3.2 g/a
In short: as §4

[28] = tested on: beadstraw; experiment: as above; conditions: dose 3.2 g/a
In short: as §4

[29] = tested on: Italian ryegrass; experiment: as above; conditions: dose 3.2 g/a
In short: as §4

[30] = tested on: wild oat; experiment: as above; conditions: dose 3.2 g/a
In short: as §4

[31] = tested on: velvetleaf; experiment: as above; conditions: dose 3.2 g/a
In short: as §4

[32] = tested on: common ragweed; experiment: as above; conditions: dose 3.2 g/a
In short: as §4

Row | SMILES | A: barnyardgrass, herbicidal effect (evaluation scale 0-5) [1] | C: ducksalad, herbicidal effect (evaluation scale 0-5) [2] | B: bulrush, herbicidal effect (evaluation scale 0-5) [3] | A: barnyardgrass, herbicidal effect (evaluation scale 0-5) [4] | C: ducksalad, herbicidal effect (evaluation scale 0-5) [5] | B: bulrush, herbicidal effect (evaluation scale 0-5) [6] | a: transplanted rice, effect on crop (evaluation scale 0-5) [7] | G: water foxtail, herbicidal effect [8] | L: common lambsquater, herbicidal effect [9] | A: barnyardgrass, herbicidal effect [10] | K: redroot pigweed, herbicidal effect [11] | D: large crabgrass, herbicidal effect [12] | N: common chickweed, herbicidal effect [13] | E: giant foxtail, herbicidal effect [14] | O: beadstraw, herbicidal effect [15] | H: Italian ryegrass, herbicidal effect [16] | F: wild oat, herbicidal effect [17] | I: velvetleaf, herbicidal effect [18] | J: common ragweed, herbicidal effect [19] | M: posumbu knotweed, herbicidal effect [20] | also measured
1 | COC(=O)N(c1ccccc1CN1COC(C)(C)C(F)C1=O)S(=O)(=O)C(F)(F)F (stereo not shown) [II-33] | 5 (mortality of 90% or above (nearly complete death)) | 5 (mortality of 90% or above (nearly complete death)) | 5 (mortality of 90% or above (nearly complete death)) | 5 (mortality of 90% or above (nearly complete death)) | 5 (mortality of 90% or above (nearly complete death)) | 5 (mortality of 90% or above (nearly complete death)) | 0 (mortality of less than 5% (almost ineffective)) | 5 (mortality of 90% or above (nearly complete death)) | 0 (mortality of less than 5% (almost ineffective)) | 4 (mortality of at least 70% and less than 90%) | 1 (mortality of at least 5% and less than 20%) | 4 (mortality of at least 70% and less than 90%) | 3 (mortality of at least 40% and less than 70%) | 4 (mortality of at least 70% and less than 90%) | 4 (mortality of at least 70% and less than 90%) | 4 (mortality of at least 70% and less than 90%) | 0 (mortality of less than 5% (almost ineffective)) | 3 (mortality of at least 40% and less than 70%) | 3 (mortality of at least 40% and less than 70%) | 3 (mortality of at least 40% and less than 70%) | G: water foxtail, herbicidal effect (evaluation scale 0-5) [21]: 5 (mortality of 90% or above (nearly complete death)); L: common lambsquater, herbicidal effect (evaluation scale 0-5) [22]: 0 (mortality of less than 5% (almost ineffective)); A: barnyardgrass, herbicidal effect (evaluation scale 0-5) [23]: 5 (mortality of 90% or above (nearly complete death)); K: redroot pigweed, herbicidal effect (evaluation scale 0-5) [24]: 3 (mortality of at least 40% and less than 70%); D: large crabgrass, herbicidal effect (evaluation scale 0-5) [25]: 5 (mortality of 90% or above (nearly complete death)); N: common chickweed, herbicidal effect (evaluation scale 0-5) [26]: 3 (mortality of at least 40% and less than 70%); E: giant foxtail, herbicidal effect (evaluation scale 0-5) [27]: 5 (mortality of 90% or above (nearly complete death)); O: beadstraw, herbicidal effect (evaluation scale 0-5) [28]: 4 (mortality of at least 70% and less than 90%); H: Italian ryegrass, herbicidal effect (evaluation scale 0-5) [29]: 4 (mortality of at least 70% and less than 90%); F: wild oat, herbicidal effect (evaluation scale 0-5) [30]: 0 (mortality of less than 5% (almost ineffective)); I: velvetleaf, herbicidal effect (evaluation scale 0-5) [31]: 4 (mortality of at least 70% and less than 90%); J: common ragweed, herbicidal effect (evaluation scale 0-5) [32]: 5 (mortality of 90% or above (nearly complete death))
2 | CCCOC(=O)N(c1ccccc1CN1COC(C)(C)C(F)C1=O)S(=O)(=O)C(F)(F)F (stereo not shown) [II-35] | 5 (mortality of 90% or above (nearly complete death)) | 5 (mortality of 90% or above (nearly complete death)) | 5 (mortality of 90% or above (nearly complete death)) | 5 (mortality of 90% or above (nearly complete death)) | 5 (mortality of 90% or above (nearly complete death)) | 5 (mortality of 90% or above (nearly complete death)) | 0 (mortality of less than 5% (almost ineffective)) | 5 (mortality of 90% or above (nearly complete death)) | 1 (mortality of at least 5% and less than 20%) | 5 (mortality of 90% or above (nearly complete death)) | 1 (mortality of at least 5% and less than 20%) | 5 (mortality of 90% or above (nearly complete death)) | 3 (mortality of at least 40% and less than 70%) | 3 (mortality of at least 40% and less than 70%) | 4 (mortality of at least 70% and less than 90%) | 4 (mortality of at least 70% and less than 90%) | 0 (mortality of less than 5% (almost ineffective)) | 0 (mortality of less than 5% (almost ineffective)) | 3 (mortality of at least 40% and less than 70%) | 3 (mortality of at least 40% and less than 70%) | G: water foxtail, herbicidal effect (evaluation scale 0-5) [21]: 5 (mortality of 90% or above (nearly complete death)); L: common lambsquater, herbicidal effect (evaluation scale 0-5) [22]: 0 (mortality of less than 5% (almost ineffective)); A: barnyardgrass, herbicidal effect (evaluation scale 0-5) [23]: 5 (mortality of 90% or above (nearly complete death)); K: redroot pigweed, herbicidal effect (evaluation scale 0-5) [24]: 2 (mortality of at least 20% and less than 40%); D: large crabgrass, herbicidal effect (evaluation scale 0-5) [25]: 5 (mortality of 90% or above (nearly complete death)); N: common chickweed, herbicidal effect (evaluation scale 0-5) [26]: 1 (mortality of at least 5% and less than 20%); E: giant foxtail, herbicidal effect (evaluation scale 0-5) [27]: 3 (mortality of at least 40% and less than 70%); O: beadstraw, herbicidal effect (evaluation scale 0-5) [28]: 4 (mortality of at least 70% and less than 90%); H: Italian ryegrass, herbicidal effect (evaluation scale 0-5) [29]: 4 (mortality of at least 70% and less than 90%); F: wild oat, herbicidal effect (evaluation scale 0-5) [30]: 3 (mortality of at least 40% and less than 70%); I: velvetleaf, herbicidal effect (evaluation scale 0-5) [31]: 3 (mortality of at least 40% and less than 70%); J: common ragweed, herbicidal effect (evaluation scale 0-5) [32]: 4 (mortality of at least 70% and less than 90%)
